For one data set, the target named is T1, FucT V (Homo sapiens, UniProt Q11128).
T1 sequence (Q11128 1-374): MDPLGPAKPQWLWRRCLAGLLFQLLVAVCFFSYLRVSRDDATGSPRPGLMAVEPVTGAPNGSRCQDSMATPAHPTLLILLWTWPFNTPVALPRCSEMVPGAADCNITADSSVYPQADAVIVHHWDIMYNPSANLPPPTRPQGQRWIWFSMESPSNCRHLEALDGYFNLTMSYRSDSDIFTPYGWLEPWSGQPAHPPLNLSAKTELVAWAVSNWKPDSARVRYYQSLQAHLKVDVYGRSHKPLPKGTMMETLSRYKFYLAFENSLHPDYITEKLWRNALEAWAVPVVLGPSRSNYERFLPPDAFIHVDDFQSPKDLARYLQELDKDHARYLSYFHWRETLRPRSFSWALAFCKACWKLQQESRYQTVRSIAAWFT
As to the kind of experiment: Test whether inhibitor is a slow substrate or an inactivator of FucT V (pre-incubation, then GDP-[U-14C]-fucose transfer). The class given is biochemical. The note with it: 0.010 mM inhibitor, 2.1 munits FucT V, 0.30 mM LacNAc-b-O-(CH2)5CO2CH3, 10 mM MnCl2, 100 mM MES pH 6.0, incubation 0-80 min at room temperature. As to the method: A 0.350 mL solution that contained 10 mM MnCl2, 2.1 munits FucT V, 0.30 mM LacNAc-b-O-(CH2)5 CO2 CH3, 0.010 mM inhibitor (7a, 7b, 7c, 8a, 8b, or 8c), and 100 mM MES (pH 6.0). This solution was subject to incubation at room temperature for various time periods (0, 3, 10, 20, 30, 60, 80 min). After the incubation time, a 0.050 mL aliquot was removed and GDP-[U-^14 C]-fucose was added to a final concentration of 0.050 mM to initiate the fucosyltransfer reaction. After a 30 minute reaction time period, the solution was passed through a Dowex 1 column and the amount of product determined.
Turning to `CCCO[C@@H]1O[C@H](CO)[C@@H](O)[C@H](NCCN2[C@H](CO)[C@@H](O)[C@H](O)[C@H](O)[C@@H]2C)[C@H]1NC(C)=O` [7c], the “slow substrate or inactivator of FucT V” value is given as “not a slow substrate or an inactivator”. Turning to `CCCO[C@@H]1O[C@H](COCc2ccccc2)[C@@H](O)[C@H](NCCN2[C@H](COCc3ccccc3)[C@@H](OCc3ccccc3)[C@H](OCc3ccccc3)[C@H](OCc3ccccc3)[C@@H]2C)[C@H]1NC(C)=O` [7a], the “slow substrate or inactivator of FucT V” value is reported as “not a slow substrate or an inactivator”. Same read-out and setting: the entry for `CCCO[C@@H]1O[C@H](COCc2ccccc2)[C@@H](O[C@@H]2O[C@H](CO)[C@H](O)[C@H](O)[C@H]2O)[C@H](NCCN2[C@H](COCc3ccccc3)[C@@H](OCc3ccccc3)[C@H](OCc3ccccc3)[C@H](OCc3ccccc3)[C@@H]2C)[C@H]1NC(C)=O` [8a] is “not a slow substrate or an inactivator”. Still for that read-out and setting: the same measure for `CCCO[C@@H]1O[C@H](CO)[C@@H](O[C@@H]2O[C@H](CO)[C@H](O)[C@H](O)[C@H]2O)[C@H](N(C)CCN2[C@H](CO)[C@@H](O)[C@H](O)[C@H](O)[C@@H]2C)[C@H]1NC(C)=O` [8b]: “not a slow substrate or an inactivator”; for `CCCO[C@@H]1O[C@H](CO)[C@@H](O[C@@H]2O[C@H](CO)[C@H](O)[C@H](O)[C@H]2O)[C@H](NCCN2[C@H](CO)[C@@H](O)[C@H](O)[C@H](O)[C@@H]2C)[C@H]1NC(C)=O` [8c]: “not a slow substrate or an inactivator”; for `CCCO[C@@H]1O[C@H](CO)[C@@H](O)[C@H](N(C)CCN2[C@H](CO)[C@@H](O)[C@H](O)[C@H](O)[C@@H]2C)[C@H]1NC(C)=O` [7b]: “not a slow substrate or an inactivator”.

Tested on in the next data set: not given
Assay: not given
The note with it: known from literature (Hanozet et al.); cited from earlier work.
With `C[C@@H]1N[C@H](COCc2ccccc2)[C@@H](OCc2ccccc2)[C@H](OCc2ccccc2)[C@@H]1OCc1ccccc1` [compound 5], the pKa result is “unusually low”.

The record behind these values is patent US6232450A, “Inhibition of human fucosyltransferases with N-linked Lewis-x and LacNAc analogs” (The Scripps Research Institute, priority 1999, dated 2001).
